These results are taken from patent US20090311264A1, “Use of Disorazoles and Their Derivatives for the Treatment of Benign and Malignant Oncoses” (AEterna Zentaris GmbH, priority 2003, published 2009).

Values after ≈ are worked out from the molar mass of the structure shown. “Also recorded” adds a separate entry of the source. Like-named read-outs stand apart in the source and are kept apart here. Some results are limits rather than exact numbers.

The test system of series [1] is human cervical carcinoma cell line KB/HeLa. Put plainly: XTT proliferation assay, KB/HeLa. Type of series: cell-based. Particulars: for EC50: Homo sapiens, HeLa. An excerpt: (§1) The compounds according to the invention were investigated for their antiproliferative activity in a proliferation test on established tumor cell lines (D. A. Scuderio et al. Cancer Res. 1988, 48, 4827-4833). The test used determines the cellular dehydrogenase activity and makes possible a determination of the cell vitality and indirectly of the cell count. The cell lines used are the human cervical carcinoma cell line KB/HeLa (ATCC CCL17), the ovarian adenocarcinoma cell line SKOV-3 (ATCC HTB77), the human glioblastoma cell line SF-268 (NCI 503138), the lung carcinoma cell line NCI-H460 (NCI 503473) and the human colon adenocarcinoma cell line RKOP 27.
Background: Formazan colour is commonly taken as a measure of viable cells.

The subject of series [2] is ovarian adenocarcinoma cell line SKOV-3. Description: XTT proliferation assay, SKOV-3. It is filed as cell-based, human. Particulars: for EC50: Homo sapiens, SK-OV-3, read-out: XTT proliferation assay, EC50, SKOV3.
Excerpt: as §1

The subject of series [3] is human glioblastoma cell line SF-268. Put plainly: XTT proliferation assay, SF-268. It is filed as cell-based. As to conditions: for EC50: Homo sapiens.
Excerpt: as §1

Series [4] has as its system lung carcinoma cell line NCI-H460. Description: XTT proliferation assay, NCI-H460. Type of series: cell-based, human. Particulars: for EC50: Homo sapiens, NCI-H460, read-out: XTT proliferation assay, EC50, NCl-H460.
Excerpt: as §1

Series [5] deals with human colon adenocarcinoma cell line RKOP 27. Put plainly: XTT proliferation assay, RKOP 27. Type of series: cell-based.
Excerpt: as §1

Series [6] deals with bovine β-tubulin. Description: Inhibition of the polymerization of tubulin. It is filed as biochemical. As to conditions: n = 2. Here is the method: The substances were tested in an in-vitro test for inhibition of the polymerization of bovine β-tubulin (D. M. Bollag et al. Cancer Res. 1995, 55, 2325-2333). In this test, tubulin purified by cycles of polymerization and depolymerization is employed, and is polymerized by addition of GTP and warming. The EC50 values of the inhibition of polymerization of β-tubulin with and without 30% associated proteins (MAPs) are indicated in table 3.

For series [7], the system named is acute myeloid leukemia cell line LT12. Description: XTT proliferation test, LT12 (nonresistant). It is filed as cell-based. As to conditions: for EC50: Rattus norvegicus. From the text:
(§2) For further characterization, the substances according to the invention were investigated against multi-drug-resistant cell lines (MDR) in comparison to the nonresistant wild-type cell lines. The cell lines investigated are the acute myeloid leukemia cell line LT1 and the resistant line LT12/mdr. Moreover, the murine P388 cell line (methylcholanthrene-induced lymphoid neoplasm) and the doxorubicin-resistant P388 were used as test systems.

In series [8] the test system is resistant line LT12/mdr. Put plainly: XTT proliferation test, LT12MDR (resistant). Type of series: cell-based. Particulars: for EC50: Rattus norvegicus, LT12.
Excerpt: as §2

The test system of series [9] is murine P388 cell line. Put plainly: XTT proliferation test, P388 (nonresistant). It is filed as cell-based. As to conditions: for EC50: Mus musculus.
Excerpt: as §2

Series [10] deals with doxorubicin-resistant P388. Put plainly: XTT proliferation test, P388ADR (resistant). Particulars: for EC50: Mus musculus, P388. It is filed as cell-based, murine.
Excerpt: as §2

Series [11] deals with KB/HeLa cells. Description: Cell cycle analysis (G2/M arrest). Particulars: 24 hours at 37° C., read-out: EC50 (50% cells in G2/M). Type of series: cell-based, human.
Series [12] concerns NCI-H460 tumor xenograft. Put plainly: In vivo therapy experiment, NCI-H460 tumor xenograft. More on the design: species or system nude mice. Particulars: for cases of death: n = 8 animals/group. Here is the method: The in-vivo activity of the compounds according to the invention was tested on human and murine xenograft models.
For series [13], the system named is Salmonella typhimurium TA100. Type of series: cell-based. As to conditions: for AMES TA100 with S9: with rat liver enzyme S9. Here is the method: (§3) For the estimation of possible side effects, disorazole E1 was investigated for mutagenicity in a fluctuation assay against the mutant strains TA98 and TA100 of the bacterium Salmonella typhimurium at three concentrations (2.5; 5 and 10 μM). The mutagenicity investigations were further carried out in the presence of the rat liver enzyme S9.

Series [14] deals with Salmonella typhimurium TA98. It is filed as cell-based. As to conditions: for AMES TA98 with S9: with rat liver enzyme S9. Here is the method: as §3
For series [15], the system named is primary human hepatocytes. Description: Survival of nonproliferating cells (alamarBlue). Particulars: 1 μM, n = 3. It is filed as cell-based. From the text: (§4) For the estimation of the possible side-effect potential, the influence of disorazole E1 on nonproliferating cells and on the protein biosynthesis was investigated (table 6).
(In general: Resazurin is reduced to fluorescent resorufin, in cell work by metabolically active cells.)

Series [16] concerns human hepatocellular carcinoma cells (HepG2). Put plainly: Protein synthesis (incorporation of 14C-methionine). It is filed as cell-based. As to conditions: 1 μM, 14C-methionine incorporation, n = 2.
Excerpt: as §4

On to `C/C=C/[C@H](O)C(C)(C)[C@@H]1C\C=C/C=C\C=C\[C@H](OC)Cc2nc(co2)C(=O)O[C@H](C(C)(C)[C@@H](O)/C=C/C)C/C=C\[C@H]2O[C@H]2/C=C/C=C\c2nc(co2)C(=O)O1` [Disorazole A1], for which the “XTT proliferation assay, EC50, KB/Hela” value in series [1] amounted to 0.15 ng/mL. Moreover, the “XTT proliferation assay, EC50, SKOV3” value in series [2] is 0.2 ng/mL. The “XTT proliferation assay, EC50, SF-268” value in series [3] worked out at 0.27 ng/mL. Moreover, the “XTT proliferation assay, EC50, NCl-H460” value in series [4] is 0.15 ng/mL. Moreover, the “XTT proliferation assay, EC50, RKOP 27” value in series [5] was found to be 0.25 ng/mL. Also, the “Inhibition of the polymerization of β-tubulin, EC50 with 30% MAPs” value (“Inhibition … with 30% MAPs” below) in [6] came to 4800 ng/mL.

Consider `C/C=C/C(O)C(C)(C)C1C/C=C\C2OC2C=CC(OC)Cc2nc(co2)C(=O)OC(C(C)(C)C(O)/C=C/C)C/C=C\C2OC2/C=C\C=Cc2nc(co2)C(=O)O1` (centres unmarked) [Disorazole E1], for which the “XTT proliferation assay, EC50, KB/Hela” value in series [1] was 0.07 ng/mL. Also, the “XTT proliferation assay, EC50, SKOV3” value in [2] was 0.02 ng/mL. For the same compound, the “XTT proliferation assay, EC50, SF-268” value in series [3] was found to be 0.17 ng/mL. For the same compound, the “XTT proliferation assay, EC50, NCl-H460” value in [4] worked out at 0.04 ng/mL. In addition, the “XTT proliferation assay, EC50, RKOP 27” value in series [5] amounted to 0.06 ng/mL. In [7], the “XTT proliferation assay, EC50, LT12” value came out at 0.1 ng/mL. For the same compound, the “XTT proliferation assay, EC50, LT12MDR” value in series [8] was 4 ng/mL. The “XTT proliferation assay, EC50, P388” value in series [9] was found to be 0.4 ng/mL. Besides, the “XTT proliferation assay, EC50, P388ADR” value in series [10] came out at 1 ng/mL. Moreover, the “Inhibition … with 30% MAPs” value in series [6] stood at 1500 ng/mL. In addition, the EC50 in series [11] stood at 1.6 nM. Further, the cases of death is on record as 0.05 mg/kg; i.v.: day 0, 7, 14; no cases of in series [12] (0.05 mg/kg, i.v.: day 0, 7, 14); 0.1 mg/kg; i.v.: day 0, 7, 14; no cases of in series [12] (0.1 mg/kg, i.v.: day 0, 7, 14); 0.25 mg/kg; i.v.: day 0, 7; 8 dead (day in series [12] (0.25 mg/kg, i.v.: day 0, 7, dead on day 11, 12, 13). For the same compound, the “reduction of the tumor growth” value in [12] (i.v., NCI-H460 xenograft-bearing nude mice, at doses without weight decrease or mortality) is “significant reduction in tumor growth; also recorded: significant reduction of the tumor growth”. Besides, in [12] (i.v., at doses reducing tumor growth), the weight decrease result is recorded as “no significant weight decrease”. Further, the “AMES TA100 with S9” value in series [13] (2.5 μM), in series [13] (5 μM) and in [13] (10 μM) was “inactive” in each case. Also, the “AMES TA100 without S9” value in series [13] (2.5 μM), in series [13] (5 μM) and in series [13] (10 μM) was “inactive” in each case. For the same compound, the “AMES TA98 with S9” value in series [14] (2.5 μM), in [14] (5 μM) and in [14] (10 μM) was “inactive” in each case. The “AMES TA98 without S9” value in [14] (2.5 μM), in series [14] (5 μM) and in series [14] (10 μM) was “inactive” each time. Also, the “AMES test, overall result” value in series [14] (TA98 and TA100, with and without S9, 2.5, 5 and 10 μM) was “AMES test-inactive”. Moreover, the “Surviving cells, primary human hepatocytes, Average, % of control” value in [15] is 119.6 % of control. Moreover, the “Protein synthesis, Average, % of control” value in series [16] is recorded as 95.9 % of control.

Take `CC(=O)O[C@H]1C(=O)[C@@]2(C)[C@H]([C@H](OC(=O)c3ccccc3)[C@]3(O)C[C@H](OC(=O)[C@H](O)[C@@H](NC(=O)c4ccccc4)c4ccccc4)C(C)=C1C3(C)C)[C@]1(OC(C)=O)CO[C@@H]1C[C@@H]2O` [Paclitaxel]: the EC50 in [1] worked out at 10 ng/mL (≈ 0.0117 µM); in series [2] it was 10 ng/mL (≈ 0.0117 µM); in [3], 10 ng/mL (≈ 0.0117 µM); in series [4], 10 ng/mL (≈ 0.0117 µM); in [7], 5 ng/mL (≈ 0.00586 µM); in [8], 340 ng/mL (≈ 0.398 µM). Moreover, the EC50 in [9] is 35 ng/mL (≈ 0.041 µM); in series [10], greater than 3160 ng/mL; in series [11] (Homo sapiens) it was 46 nM.

On to `CC[C@]1(O)C[C@@H]2CN(CCc3c([nH]c4ccccc34)[C@@](C(=O)OC)(c3cc4c(cc3OC)N(C)[C@H]3[C@@](O)(C(N)=O)[C@H](O)[C@]5(CC)C=CCN6CC[C@]43[C@@H]65)C2)C1` [Vindesine], for which the EC50 in series [1] turned out to be 2 ng/mL (≈ 0.00265 µM); in series [2] it was 2 ng/mL (≈ 0.00265 µM); in series [3], 5 ng/mL (≈ 0.00663 µM); in [4], 6 ng/mL (≈ 0.00796 µM); in series [7], 0.9 ng/mL (≈ 0.00119 µM); in series [8] it was 222 ng/mL (≈ 0.294 µM). The EC50 is 9 ng/mL (≈ 0.0119 µM) in series [9], 940 ng/mL (≈ 1.25 µM) in series [10] and 3 nM in series [11] (Homo sapiens). Moreover, the “Inhibition … with 30% MAPs” value in series [6] turned out to be 400 ng/mL.
